≈ marks a conversion by molar mass, not a printed value. Where two headings read alike, the source gives them in different places.
Columns and labels:
[1] = system: Klebsiella pneumoniae W-75-2; assay: In vivo systemic lethal infection of mice, Klebsiella pneumoniae W-75-2; parameters: species or system Charles River CD-1 mice; details: CD-1 mice
Text: (§1) As shown in Table II these compounds show high in vivo antibacterial activity against Escherichia coli 311 and Klebsiella pneumoniae W-75-2 when administered by a single subcutaneous dose to groups of Charles River CD-1 mice, weighing about 20 g. each. The mice are infected intraperitoneally with a lethal dose of these bacteria.

Escherichia coli 311 [2] = assay: In vivo systemic lethal infection of mice, Escherichia coli 311; parameters: species or system Charles River CD-1 mice; details: CD-1 mice
Text: as §1

[3] = system: Pseudomonas aeruginosa G236; assay: In vitro MIC, agar dilution, Pseudomonas aeruginosa G236; format: cell-based; details: read-out: Minimal Inhibitory Concentration
Experimental: (§2) The in vitro activity of representative compounds of the present invention are given in the following Table I in terms of minimal inhibitory concentration. The test used was the standard agar dilution test using a Steers multiple inocula replicator and incubating at 35° C. for 18 hours in conventional nutrient agar.

[4] = system: Klebsiella pneumoniae W75-2; assay: In vitro MIC, agar dilution, Klebsiella pneumoniae W75-2; format: cell-based; details: W752; Klebsiella pneumoniae W75-2; agar dilution, 35° C., 18 hours, nutrient agar; read-out: Minimal Inhibitory Concentration
Experimental: as §2

Escherichia coli 311 [5] = assay: In vitro MIC, agar dilution, Escherichia coli 311; format: cell-based; details: 35° C., 18 hours, nutrient agar, read-out: Minimal Inhibitory Concentration
Experimental: as §2

Serratia marcens QHC77-2 = assay: In vitro MIC, agar dilution, Serratia marcens QHC77-2; format: cell-based; details: QHC772; Serratia marcens QHC77-2; agar dilution, 35° C., 18 hours, nutrient agar; read-out: Minimal Inhibitory Concentration
Experimental: as §2

Serratia marcens K77-1 = assay: In vitro MIC, agar dilution, Serratia marcens K77-1; format: cell-based; details: K771; Serratia marcens K77-1; agar dilution, 35° C., 18 hours, nutrient agar; read-out: Minimal Inhibitory Concentration
Experimental: as §2

Klebsiella pneumoniae AD = assay: In vitro MIC, agar dilution, Klebsiella pneumoniae AD; format: cell-based; details: Klebsiella pneumoniae AD; agar dilution, 35° C., 18 hours, nutrient agar; read-out: Minimal Inhibitory Concentration
Experimental: as §2

Enterococcus SM77-15 = assay: In vitro MIC, agar dilution, Enterococcus SM77-15; format: cell-based; details: SM7715; Enterococcus SM77-15; agar dilution, 35° C., 18 hours, nutrient agar; read-out: Minimal Inhibitory Concentration
Experimental: as §2

[6] = system: Pseudomonas aeruginosa UCS 76-13; assay: In vitro MIC, agar dilution, Pseudomonas aeruginosa UCS 76-13; format: cell-based; details: UCS7613; Pseudomonas aeruginosa UCS 76-13; agar dilution, 35° C., 18 hours, nutrient agar; read-out: Minimal Inhibitory Concentration
Experimental: as §2

[7] = system: Klebsiella pneumoniae UR76-1; assay: In vitro MIC, agar dilution, Klebsiella pneumoniae UR76-1; format: cell-based; details: UR761; Klebsiella pneumoniae UR76-1; agar dilution, 35° C., 18 hours, nutrient agar; read-out: Minimal Inhibitory Concentration
Experimental: as §2

[8] = system: Klebsiella pneumoniae W75-4; assay: In vitro MIC, agar dilution, Klebsiella pneumoniae W75-4; format: cell-based; details: W754; Klebsiella pneumoniae W75-4; agar dilution, 35° C., 18 hours, nutrient agar; read-out: Minimal Inhibitory Concentration
Experimental: as §2

[9] = system: Staphylococcus aureus Q74-1; assay: In vitro MIC, agar dilution, Staphylococcus aureus Q74-1; format: cell-based; details: Q741; Staphylococcus aureus Q74-1; agar dilution, 35° C., 18 hours, nutrient agar; read-out: Minimal Inhibitory Concentration
Experimental: as §2

[10] = system: Pseudomonas aeruginosa PD05141; assay: In vitro MIC, agar dilution, Pseudomonas aeruginosa PD05141; format: cell-based; details: Pseudomonas aeruginosa PD05141; agar dilution, 35° C., 18 hours, nutrient agar; read-out: Minimal Inhibitory Concentration
Experimental: as §2

Proteus vulgaris N74-1 = assay: In vitro MIC, agar dilution, Proteus vulgaris N74-1; format: cell-based; details: N741, 35° C., 18 hours, nutrient agar, read-out: Minimal Inhibitory Concentration
Experimental: as §2

Proteus morganii K72 = assay: In vitro MIC, agar dilution, Proteus morganii K72; format: cell-based; details: Morganella morganii; Proteus morganii K72; agar dilution, 35° C., 18 hours, nutrient agar; read-out: Minimal Inhibitory Concentration
Experimental: as §2

[11] = system: Staphylococcus aureus Q74-6; assay: In vitro MIC, agar dilution, Staphylococcus aureus Q74-6; format: cell-based; details: Q746; Staphylococcus aureus Q74-6; agar dilution, 35° C., 18 hours, nutrient agar; read-out: Minimal Inhibitory Concentration
Experimental: as §2

Escherichia coli W75-1 = assay: In vitro MIC, agar dilution, Escherichia coli W75-1; format: cell-based; details: W751, 35° C., 18 hours, nutrient agar, read-out: Minimal Inhibitory Concentration
Experimental: as §2

[12] = system: Enterobacter cloacae OSU75-2; assay: In vitro MIC, agar dilution, Enterobacter cloacae OSU75-2; format: cell-based; details: OSU752; Enterobacter cloacae OSU75-2; agar dilution, 35° C., 18 hours, nutrient agar; read-out: Minimal Inhibitory Concentration
Experimental: as §2

[13] = system: Enterobacter cloacae MA75-1; assay: In vitro MIC, agar dilution, Enterobacter cloacae MA75-1; format: cell-based; details: read-out: Minimal Inhibitory Concentration
Experimental: as §2

[14] = system: Escherichia coli ESS22-31; assay: In vitro MIC, agar dilution, Escherichia coli ESS22-31; format: cell-based; details: ESS2231; Escherichia coli ESS22-31; agar dilution, 35° C., 18 hours, nutrient agar; read-out: Minimal Inhibitory Concentration
Experimental: as §2

Proteus rettgeri N76-1 = assay: In vitro MIC, agar dilution, Proteus rettgeri N76-1; format: cell-based; details: Providencia rettgeri, N761; Proteus rettgeri N76-1; agar dilution, 35° C., 18 hours, nutrient agar; read-out: Minimal Inhibitory Concentration
Experimental: as §2

Escherichia coli OSU75-1 = assay: In vitro MIC, agar dilution, Escherichia coli OSU75-1; format: cell-based; details: OSU751, 35° C., 18 hours, nutrient agar, read-out: Minimal Inhibitory Concentration
Experimental: as §2

[15] = system: Enterobacter aerogenes UR76-3; assay: In vitro MIC, agar dilution, Enterobacter aerogenes UR76-3; format: cell-based; details: Klebsiella aerogenes, UR763; Enterobacter aerogenes UR76-3; agar dilution, 35° C., 18 hours, nutrient agar; read-out: Minimal Inhibitory Concentration
Experimental: as §2

[16] = system: Pseudomonas aeruginosa 12-4-4; assay: In vitro MIC, agar dilution, Pseudomonas aeruginosa 12-4-4; format: cell-based; details: read-out: Minimal Inhibitory Concentration
Experimental: as §2

Serratia K101 = assay: In vitro MIC, agar dilution, Serratia K101; format: cell-based; details: Serratia K101; agar dilution, 35° C., 18 hours, nutrient agar; read-out: Minimal Inhibitory Concentration
Experimental: as §2

[17] = system: Klebsiella pneumoniae MA75-1; assay: In vitro MIC, agar dilution, Klebsiella pneumoniae MA75-1; format: cell-based; details: MA751; Klebsiella pneumoniae MA75-1; agar dilution, 35° C., 18 hours, nutrient agar; read-out: Minimal Inhibitory Concentration
Experimental: as §2

[18] = single subcutaneous dose 0.5 mg./kg.
[19] = single subcutaneous dose 1 mg./kg.
[20] = single subcutaneous dose 2 mg./kg.
[21] = single subcutaneous dose 4 mg./kg.
[22] = single subcutaneous dose 8 mg./kg.
[23] = MA751, Enterobacter cloacae MA75-1, agar dilution, 35° C., 18 hours, nutrient agar
[24] = 1244, Pseudomonas aeruginosa 12-4-4, agar dilution, 35° C., 18 hours, nutrient agar
[25] = Pseudomonas aeruginosa G236, agar dilution, 35° C., 18 hours, nutrient agar

SMILES | Alive/Total Mice Tested, 7 Days After Infection (Escherichia coli 311 [2]; [21]) | Alive/Total Mice Tested, 7 Days After Infection (Escherichia coli 311 [2]; [22]) | MIC [4] [µg/mL] | MIC (Escherichia coli 311 [5]) [µg/mL] | MIC (Serratia marcens QHC77-2) [µg/mL] | MIC (Serratia marcens K77-1) [µg/mL] | MIC (Klebsiella pneumoniae AD) [µg/mL] | MIC (Enterococcus SM77-15) [µg/mL] | MIC [6] [µg/mL] | MIC [7] [µg/mL] | MIC [8] [µg/mL] | MIC [9] [µg/mL] | MIC [10] [µg/mL] | MIC (Proteus vulgaris N74-1) [µg/mL] | MIC (Proteus morganii K72) [µg/mL] | MIC [11] [µg/mL] | Alive/Total Mice Tested, 7 Days After Infection (Escherichia coli 311 [2]; [19]) | Alive/Total Mice Tested, 7 Days After Infection (Escherichia coli 311 [2]; [20]) | MIC (Escherichia coli W75-1) [µg/mL] | MIC [12] [µg/mL] | further results
Cn1nnnc1SCC1=C(C(=O)O)N2C(=O)[C@@H](NC(=O)[C@H](O)c3ccccc3)[C@H]2SC1 [Cefamandol] | 6/20 | 11/20 | – | – | – | – | – | – | – | – | – | – | – | – | – | – | – | – | – | – | Alive/Total Mice Tested, 7 Days After Infection [1, 18]: 0/20; Alive/Total Mice Tested, 7 Days After Infection [1, 19]: 1/20; Alive/Total Mice Tested, 7 Days After Infection [1, 20]: 7/20; Alive/Total Mice Tested, 7 Days After Infection [1, 21]: 19/20; Alive/Total Mice Tested, 7 Days After Infection [1, 22]: 20/20; Alive/Total Mice Tested, 7 Days After Infection (Escherichia coli 311 [2]; single subcutaneous dose 16 mg./kg.): 20/20; Alive/Total Mice Tested, 7 Days After Infection (Escherichia coli 311 [2]; single subcutaneous dose 32 mg./kg.): 20/20
CO/N=C(\C(=O)NC1C(=O)N2C(C(=O)O)=C(CSc3nnc(-n4nc(C)cc4-c4ccccc4)n3N)CSC12)c1csc(N)n1 (stereo not drawn) [Compound III, 7-[2-(Syn-methoxyimino)-2-(2-aminothiazol-4-yl)acetamido]-3-[4-amino-5-(1-[3-methyl-5-phenyl]pyrazolyl)-1,2,4-triazol-3-ylthiomethyl]-3-cephem-4-carboxylic acid] | 5/5 | 5/5 | 1 (≈ 1.5 µM) | 0.25 (≈ 0.374 µM) | 8 (≈ 12 µM) | 4 (≈ 5.99 µM) | 0.5 (≈ 0.749 µM) | > 128 | > 128 | 4 (≈ 5.99 µM) | 1 (≈ 1.5 µM) | 2 (≈ 3 µM) | > 128 | 1 (≈ 1.5 µM) | 2 (≈ 3 µM) | 32 (≈ 47.9 µM) | 0/5 | 0/5 | 1 (≈ 1.5 µM) | 4 (≈ 5.99 µM) | MIC ([3]; Pseudomonas aeruginosa, G236, 18 h): > 128 µg/mL; MIC [13, 23]: 128 µg/mL (≈ 192 µM); MIC [14]: ≤ 0.12 µg/mL; MIC (Proteus rettgeri N76-1): 1 µg/mL (≈ 1.5 µM); MIC (Escherichia coli OSU75-1): 1 µg/mL (≈ 1.5 µM); MIC [15]: 0.25 µg/mL (≈ 0.374 µM); MIC [16, 24]: 128 µg/mL (≈ 192 µM); MIC (Serratia K101): 4 µg/mL (≈ 5.99 µM); MIC [17]: 0.5 µg/mL (≈ 0.749 µM)
CO/N=C(\C(=O)NC1C(=O)N2C(C(=O)O)=C(CSc3n[nH]c(-n4cccn4)n3)CSC12)c1csc(N)n1 (stereo not drawn) [Compound V, 7-[2-(Syn-methoxyimino)-2-(2-aminothiazol-4-yl)acetamido]-3-[5-(1-pyrazolyl)-1,2,4-triazol-3-ylthiomethyl]-3-cephem-4-carboxylic acid] | 5/5 | – | ≤ 0.12 | ≤ 0.12 | 0.25 (≈ 0.444 µM) | 0.5 (≈ 0.889 µM) | ≤ 0.12 | > 128 | 64 (≈ 114 µM) | 0.25 (≈ 0.444 µM) | ≤ 0.12 | 1 (≈ 1.78 µM) | 64 (≈ 114 µM) | 2 (≈ 3.55 µM) | ≤ 0.12 | 64 (≈ 114 µM) | 5/5 | 5/5 | ≤ 0.12 | 4 (≈ 7.11 µM) | MIC [3, 25]: 16 µg/mL (≈ 28.4 µM); Alive/Total Mice Tested, 7 Days After Infection (Escherichia coli 311 [2]; single subcutaneous dose 0.25 mg./kg.): 0/5; Alive/Total Mice Tested, 7 Days After Infection (Escherichia coli 311 [2]; [18]): 0/5; MIC ([13]; Enterobacter cloacae, MA751, 18 h): > 128 µg/mL; MIC [14]: ≤ 0.12 µg/mL; MIC (Proteus rettgeri N76-1): ≤ 0.12 µg/mL; MIC (Escherichia coli OSU75-1): ≤ 0.12 µg/mL; MIC [15]: ≤ 0.12 µg/mL; MIC [16, 24]: 16 µg/mL (≈ 28.4 µM); MIC (Serratia K101): 0.5 µg/mL (≈ 0.889 µM); MIC [17]: ≤ 0.12 µg/mL
CO/N=C(\C(=O)NC1C(=O)N2C(C(=O)O)=C(CSc3nnc(-n4nc(C)cc4C)n3N)CSC12)c1csc(N)n1 (stereo not drawn) [Compound II, 7-[2-(Syn-methoxyimino)-2-(2-aminothiazol-4-yl)acetamido]-3-[4-amino-5-(1-[3,5-dimethyl]pyrazolyl)-1,2,4-triazol-3-ylthiomethyl]-3-cephem-4-carboxylicacid] | 5/5 | 5/5 | 0.25 (≈ 0.413 µM) | ≤ 0.12 | 2 (≈ 3.3 µM) | 1 (≈ 1.65 µM) | ≤ 0.12 | > 128 | > 128 | 0.5 (≈ 0.826 µM) | 0.25 (≈ 0.413 µM) | 2 (≈ 3.3 µM) | > 128 | 0.5 (≈ 0.826 µM) | 0.5 (≈ 0.826 µM) | 64 (≈ 106 µM) | 0/5 | 5/5 | 0.25 (≈ 0.413 µM) | 2 (≈ 3.3 µM) | MIC [3, 25]: 128 µg/mL (≈ 211 µM); MIC [13, 23]: 128 µg/mL (≈ 211 µM); MIC [14]: ≤ 0.12 µg/mL; MIC (Proteus rettgeri N76-1): 0.5 µg/mL (≈ 0.826 µM); MIC (Escherichia coli OSU75-1): 0.25 µg/mL (≈ 0.413 µM); MIC [15]: ≤ 0.12 µg/mL; MIC ([16]; Pseudomonas aeruginosa, 1244, 18 h): 64 µg/mL (≈ 106 µM); MIC (Serratia K101): 1 µg/mL (≈ 1.65 µM); MIC [17]: ≤ 0.12 µg/mL

Source: US4336375A, “Cephalosporanic acid derivatives” (American Cyanamid Company, priority 1980, dated 1982)
